Like-named read-outs stand apart in the source and are kept apart here.
Assays:
[1] = Stability (1): light irradiation, HPLC purity; format: physicochemical; conditions: for Stability against light: 1,200,000 lx·hr, conclusion in words
Method: Test Example 5 Stability (1) The type I crystals, the type II crystals, and the type Ill crystals were placed in a light stability tester and irradiated with light (1,200,000 lx·hr) (light source: D65 lamp (FLR20S-D-EDL-D65/M)).
The purity of the crystals of each type was measured by HPLC.
(§1) Measurement wavelength: 254 nm
Column: Ascentis Express C18 (Sigma-Aldrich Japan), particle diameter: 5 μm, inner diameter 4.6 mm×length 150 mm
(§2) Column temperature: 40° C.
(§3) Mobile phase A: water/acetic acid=1000/1 solution
(§4) Mobile phase B: acetonitrile/acetic acid=1000/1 solution

[2] = Stability (2): storage at 60° C. and relative humidity 75%, HPLC purity; format: physicochemical; conditions: relative humidity 75%; for Stability: conclusion in words
Method: The type I crystals, the type II crystals, and the type III crystals were stored under conditions of 60° C. and a relative humidity of 75%.
These crystals were sampled over time, and their purity was measured by HPLC.
as §1
Column: Ascentis Express C18, particle size: 5 μm, 4.6 mm in inside diameter×150 mm in length
as §2, §3, §4

[3] = Physical stability (2): type I + type II crystals suspended in acetonitrile, crystal form by powder X-ray diffraction; format: physicochemical; conditions: acetonitrile (nonaqueous conditions), conclusion in words
Method: The type I crystals and the type 11 crystals were mixed, suspended in acetonitrile, and stirred at 5, 25, or 40° C.
(§5) The mixture was sampled over time, and the crystal form was measured by powder X-ray diffraction.

[4] = format: physicochemical
Method: The type I crystals and the type III crystals were mixed, suspended in acetonitrile, and stirred at 5, 25, or 40° C.
as §5

[5] = Solubility in aqueous sulfobutyl ether-β-cyclodextrin (SBEβCD) solution; format: physicochemical; conditions: for solubility: aqueous with cosolvent or surfactant or cyclodextrin, thermodynamic from solid, read-out: Solubility (dissolved / not dissolved)
Method: 32.4 mL of water for injection was added to 6.00 g of sulfobutyl ether-β-cyclodextrin (CYCLOLAB Cyclodextrin Research & Development Laboratory Ltd.) (hereinafter also referred to as “SBEβCD”), and the solution was then stirred at 25° C. for 10 minutes. After the dissolution of the substance had been confirmed by visual observation, the mixed solution was cooled to 10° C. Thereafter, 0.50 g of type I crystal or type II crystal was added to the reaction mixture, and the obtained solution was then heated stepwise, until the crystal was dissolved in the solution.
32.5 mL of water for injection was added to 6.00 g of SBEβCD, and the solution was then stirred at 25° C. for 10 minutes. After the dissolution of the substance had been confirmed by visual observation, the mixed solution was cooled to 0° C., 5° C. or 10° C. Thereafter, 0.48 g of type 111 crystal was added to the reaction mixture, and the obtained solution was then stirred, until the crystal was dissolved in the solution.

[6] = Hygroscopic properties (storage, weight change); format: physicochemical
Method: The type I crystals and the type III crystals were stored under conditions of 25° C. and a relative humidity of 97%.
These crystals were sampled over time, and the weights of the crystals were measured to determine the rates of change in weight.
Rate of change in weight (%)=((B−A)/A)×100
A: Weight of the crystals before the start of the test
B: Weight of the crystals after the start of the test

[7] = format: physicochemical; remark: listed apart in the source
Method: The type I crystals and the type II crystals were mixed, suspended in a 40% aqueous acetonitrile solution, and stirred at 25° C.
as §5

[8] = molecular target: uridyldiphospho-3-O-acyl-N-acetylglucosamine deacetylase (LpxC) (Pseudomonas aeruginosa, UniProt P47205); conditions: known from Patent Literature 1; cited from earlier work
Chain of uridyldiphospho-3-O-acyl-N-acetylglucosamine deacetylase (LpxC) (P47205 whole entry): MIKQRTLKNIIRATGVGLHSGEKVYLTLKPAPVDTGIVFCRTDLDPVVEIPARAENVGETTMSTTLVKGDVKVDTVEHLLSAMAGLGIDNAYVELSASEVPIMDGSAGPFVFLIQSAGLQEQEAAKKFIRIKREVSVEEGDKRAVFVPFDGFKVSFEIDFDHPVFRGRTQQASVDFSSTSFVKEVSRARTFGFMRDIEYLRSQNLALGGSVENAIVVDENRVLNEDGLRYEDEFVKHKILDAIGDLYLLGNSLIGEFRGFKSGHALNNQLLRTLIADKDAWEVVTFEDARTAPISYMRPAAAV

[9] = after light irradiation 1,200,000 lx·hr, D65 lamp
[10] = light stability test, before start of test
[11] = 25° C., relative humidity 97%, 4 weeks

SMILES	Stability against light [1]	HPLC purity (%) [1, 9] [%]	HPLC purity (%) [1, 10] [%]	HPLC purity (%) ([2]; 4 weeks)	HPLC purity (%) ([2]; 7 weeks)	HPLC purity (%) ([2]; 13 weeks)	HPLC purity (%) ([2]; before start of test)	Stability [2]	Physical stability / crystal transformation [3]	Physical stability / crystal transformation [4]	Temperature at which the crystal was dissolved in the solution [5] [°C]	Rate of change in weight (%) [6, 11] [%]	Physical stability / crystal transformation [7]	other results
CNC(=O)[C@@](C)(C(=O)NO)N(C)C(=O)c1ccc(C#Cc2ccc([C@H](O)CO)cc2)cc1 [Type III crystals, (2S)-2-((4-((4-((1S)-1,2-dihydroxyethyl)phenyl)ethynyl)benzoyl)(methyl)amino)-N-hydroxy-N′,2-dimethylmalonamide]	more stable against light than the type I crystals	99.4	99.5	99.3	98.6	94.8	99.5	more stable than the type I crystals	more stable than the type I crystals and the type II crystals	more stable than the type I crystals	≤ 0	0.10	–	HPLC purity (%) ([2]; 13 weeks, listed as type III crystals): approximately 95%; Stability ([2]; listed as type Ill crystals): most stable; solubility ([5]; 0 °C, 0 ° C.): > 14.8 mg/mL; solubility ([5]; 5 °C, 5 ° C.): > 14.8 mg/mL; Rate of change in weight (%) ([6]; 25° C., relative humidity 97%, 16 weeks): 0.03%; Rate of change in weight ([6]; 25° C., relative humidity 97%, time not stated): ≤ 0.1%; Hygroscopic properties ([6]; conclusion in words): low
CNC(=O)[C@@](C)(C(=O)NO)N(C)C(=O)c1ccc(C#Cc2ccc([C@H](O)CO)cc2)cc1 [Type I crystals, (2S)-2-((4-((4-((1S)-1,2-dihydroxyethyl)phenyl)ethynyl)benzoyl)(methyl)amino)-N-hydroxy-N′,2-dimethylmalonamide, reference compound]	reduced	96.1	99.2	98.7	97.6	90.4	99.2	–	transformed to the type III crystals	transformed to the type III crystals	25	0.80	transformed to the type II crystals	HPLC purity (%) ([2]; 13 weeks, listed as type I crystals): approximately 90%; solubility ([5]; 10 °C, 10 ° C.): < 15.4 mg/mL; solubility ([5]; 15 °C, 15 ° C.): < 15.4 mg/mL; solubility ([5]; 20 °C, 20 ° C.): < 15.4 mg/mL; solubility ([5]; 25 °C, 25 ° C.): > 15.4 mg/mL; Rate of change in weight (%) ([6]; 25° C., relative humidity 97%, 13 weeks): 1.09%; Rate of change in weight (%) ([6]; 25° C., relative humidity 97%, 13 weeks, listed as type I crystals): ≥ 1%
CNC(=O)[C@@](C)(C(=O)NO)N(C)C(=O)c1ccc(C#Cc2ccc([C@H](O)CO)cc2)cc1 [compound A, (2S)-2-((4-((4-((1S)-1,2-dihydroxyethyl)phenyl)ethynyl)benzoyl)(methyl)amino)-N-hydroxy-N′,2-dimethylmalonamide]	–	–	–	–	–	–	–	–	–	–	–	–	–	LpxC inhibitory activity [8]: excellent
CNC(=O)[C@@](C)(C(=O)NO)N(C)C(=O)c1ccc(C#Cc2ccc([C@H](O)CO)cc2)cc1 [Type II crystals, (2S)-2-((4-((4-((1S)-1,2-dihydroxyethyl)phenyl)ethynyl)benzoyl)(methyl)amino)-N-hydroxy-N′,2-dimethylmalonamide]	–	98.5	99.1	98.7	97.7	91.2	99.1	more stable than the type I crystals	transformed to the type III crystals	–	25	–	more stable than the type I crystals	Stability against light ([1]; listed as type 11 crystals): more stable against light than the type I crystals; HPLC purity (%) ([2]; 13 weeks, listed as type II crystals): approximately 91%

— patent US20200308103A1, “NOVEL CRYSTALS OF HYDROXAMIC ACID DERIVATIVE, PRODUCTION METHOD THEREOF, AND PHARMACEUTICAL COMPOSITION” (FUJIFILM Toyama Chemical Co., Ltd., priority 2016, published 2020)
